Like-named read-outs stand apart in the source and are kept apart here.
What was measured:
A. baumannii BAA-1793 = conditions: determined by ATCC according to CLSI guidelines, ref ATCC; cited from earlier work
From the text: Supplement 41598_2021_86155_MOESM1_ESM.docx, table 3: Table S3. Supplementary information about the resistance pattern of the bacterial strain A. baumannii BAA-1793 used in the Minimum Inhibitory Concentration study presented in Table 1.

E. faecium BAA-2319 = conditions: determined by ATCC according to CLSI guidelines, ref ATCC; cited from earlier work
From the text: Supplement 41598_2021_86155_MOESM1_ESM.docx, table 2: Table S2. Supplementary information about the resistance pattern of the bacterial strain E. faecium BAA-2319 used in the Minimum Inhibitory Concentration study presented in Table 1.

Staphylococcus aureus = test: VITEK 2 antimicrobial sensitivity characterization; format: cell-based; conditions: VITEK 2 system, CLSI ranges
Protocol: (§1) This experiment was conducted by Omnix Medical, by JMI Laboratories (North Liberty, IA, USA) and by Aptuit (Verona) S.r.l. (Italy), an Evotec Company. All studies were performed according to Clinical and Laboratory Standards Institute guidelines[30] for the application of the broth microdilution method. Reference strains from American Type Culture Collection (ATCC) and clinical isolates from the Evotec EvostrAIn and the JMI Laboratories SENTRY surveillance program culture collections (Acinetobacter baumannii: ACC 00445, ACC 00527, ACC 00535, ATCC 17978, ATCC 19606, ATCC BAA-1793, ACC 01076, ACC 01077, NCTC 13420, JMI #1088100 and JMI #1001007; Klebsiella pneumoniae: ATCC 43816 and ATCC BAA-1705; Escherichia coli: ACC 01001 and ATCC 25922; Staphylococcus aureus: ATCC 29213, ATCC BAA-44 and ATCC 33591; Bacillus cereus: ATCC 14579; Enterococcus faecalis: ATCC 29212; Enterococcus faecium: ATCC BAA-2319) were used. The antimicrobial activity of OMN6 was determined by 12 serial two-fold dilutions in water of the 100-fold highest compound solution; 1 µL of each well was transferred into 96 microtiter plates (final concentration: 256–0.12 µg/mL). In most strains, same procedure was used to determine the colistin antimicrobial activity (final concentration: 32–0.015 µg/mL). Bacterial strains were sub-cultured on the agar plates and incubated for 18–24 h at 35 ± 2 °C in ambient air. Following incubation, the inoculum was prepared from isolated colonies and adjusted to 0.5 McFarland turbidity standard (1 to 2 × 10^8 colony-forming units/mL) in 0.9% saline. Bacterial suspension was then diluted 1:200 in Muller-Hinton broth (from BD; Becton, Dickinson and Company, Franklin Lakes, NJ, USA) and within 15 min 100 µL/well were dispensed. Growth-control wells and sterility-check wells (uninoculated well) were present in each plate. Plates were incubated for 18–24 h at 35 ± 2 °C in ambient air. […] The antimicrobial activity to other antibiotics on most bacterial strains was determined by Evotec using the antimicrobial sensitive test from the VITEK 2 automated microbiology system (bioMérieux SA, Marcy l'Etoile, France; data presented in Table S1), or by ATCC according to CLSI (Clinical and Laboratory Standards Institute) guidelines[30]
Table S1. Supplementary information about the resistance pattern of 14 bacterial strains used in the Minimum Inhibitory Concentration study presented in Table 1. The resistance pattern of the different bacterial isolates was characterized by broth microdilution studies (for colistin) or with the VITEK 2 system (for the other antibiotics).

[1] = tested on: Acinetobacter baumannii clinical isolates; test: Time-kill studies; format: cell-based; conditions: Difco Muller Hinton Broth
Protocol: Time-kill experiments were performed by JMI Laboratories (North Liberty, IA, USA) as described in chapter 5.14 of the Clinical Microbiology Procedures Handbook[32] and the CLSI M26-A[33] document. Two Acinetobacter baumannii clinical isolates (JMI colistin-sensitive strain #1088100 and colistin-resistant strain #1001007) were used for this study. MIC values that were determined in Difco Muller Hinton Broth (BD) for OMN6 and colistin as described above, were used as the baseline values during time-kill testing. In the time-kill experiments, OMN6 and colistin were tested in Difco Muller Hinton Broth. The time-kill cultures were sampled at 0, 2, 4, 8, and 24 h after compound addition. The number of CFU/mL in each culture was measured by plating 100 μL of serial dilutions onto blood agar plates. Colonies were counted after 48 h of growth at 35 °C. Time-kill curves were generated by plotting CFU/mL as log10 values over time. The limit of detection was 10 CFU/mL. Bactericidal activity was defined as a ≥ 99.9% reduction (i.e., a ≥ 3 log10 decrease) in the number of input bacterial cells at any arbitrary timepoint.

Acinetobacter baumannii = conditions: Difco Muller Hinton Broth, data not shown
Protocol: as §1

Row | Compound | Resistance pattern (A. baumannii BAA-1793) | also measured
1 | NCC[C@H](O)C(=O)N[C@@H]1C[C@H](N)[C@@H](O[C@H]2O[C@H](CN)[C@@H](O)[C@H](O)[C@H]2O)[C@H](O)[C@H]1O[C@H]1O[C@H](CO)[C@@H](O)[C@H](N)[C@H]1O [Amikacin] | S | –
2 | CC1(C)S[C@@H]2[C@H](NC(=O)[C@H](N)c3ccccc3)C(=O)N2[C@H]1C(=O)O [Ampicillin] | R | Resistance pattern (E. faecium BAA-2319): R
3 | C[C@H]1[C@H](NC(=O)/C(=N\OC(C)(C)C(=O)O)c2csc(N)n2)C(=O)N1S(=O)(=O)O [Aztreonam] | R | –
4 | CC1(C)S[C@@H]2[C@H](NC(=O)Cc3ccccc3)C(=O)N2[C@H]1C(=O)O [Benzylpenicillin] | – | Resistance pattern (E. faecium BAA-2319): R
5 | CCC[C@@H]1C[C@@H](C(=O)N[C@@H]([C@H]2O[C@H](SC)[C@H](O)[C@@H](O)[C@H]2O)[C@H](C)Cl)N(C)C1 [CLI, clindamycin] | – | VITEK characterization (resistance range) (Staphylococcus aureus; S. aureus ATCC 29213): S; VITEK characterization (resistance range) (Staphylococcus aureus; S. aureus ATCC 33591): R
6 | CC(=O)OCC1=C(C(=O)O)N2C(=O)[C@@H](NC(=O)Cc3cccs3)[C@H]2SC1 [Cefalotin] | R | –
7 | Cc1nnc(SCC2=C(C(=O)O)N3C(=O)[C@@H](NC(=O)Cn4cnnn4)[C@H]3SC2)s1 [Cefazolin] | R | –
8 | CO/N=C(\C(=O)N[C@@H]1C(=O)N2C(C(=O)[O-])=C(C[N+]3(C)CCCC3)CS[C@H]12)c1csc(N)n1 [Cefepime] | R | –
9 | CO[C@@]1(NC(=O)C2SC(=C(C(N)=O)C(=O)O)S2)C(=O)N2C(C(=O)O)=C(CSc3nnnn3C)CS[C@@H]21 (stereo partly shown) [Cefotetan] | R | –
10 | CO[C@@]1(NC(=O)Cc2cccs2)C(=O)N2C(C(=O)O)=C(COC(N)=O)CS[C@@H]21 [Cefoxitin] | R | –
11 | COCC1=C(C(=O)O)N2C(=O)[C@@H](NC(=O)/C(=N\OC)c3csc(N)n3)[C@H]2SC1 [Cefpodoxime] | R | –
12 | CO/N=C(\C(=O)N[C@@H]1C(=O)N2C(C(=O)O)=CCS[C@H]12)c1csc(N)n1 [Ceftizoxime] | R | –
13 | CO/N=C(\C(=O)N[C@@H]1C(=O)N2C(C(=O)O)=C(CSc3nc(=O)c(=O)[nH]n3C)CS[C@H]12)c1csc(N)n1 [Ceftriaxone] | R | –
14 | CO/N=C(\C(=O)N[C@@H]1C(=O)N2C(C(=O)OC(C)OC(C)=O)=C(COC(N)=O)CS[C@H]12)c1ccco1 (stereo partly shown) [Cefuroxime Axetil] | R | –
15 | CO/N=C(\C(=O)N[C@@H]1C(=O)N2C(C(=O)O)=C(COC(N)=O)CS[C@H]12)c1ccco1 [Cefuroxime] | R | –
16 | CC[C@H]1OC(=O)[C@H](C)[C@@H](O[C@H]2C[C@@](C)(OC)[C@@H](O)[C@H](C)O2)[C@H](C)[C@@H](O[C@@H]2O[C@H](C)C[C@H](N(C)C)[C@H]2O)[C@](C)(O)C[C@@H](C)C(=O)[C@H](C)[C@@H](O)[C@]1(C)O [ERY, erythromycin] | – | VITEK characterization (resistance range) (Staphylococcus aureus; S. aureus ATCC 29213): S; VITEK characterization (resistance range) (Staphylococcus aureus; S. aureus ATCC 33591): R; Resistance pattern (E. faecium BAA-2319): R
17 | C[C@H]1COc2c(N3CCN(C)CC3)c(F)cc3c(=O)c(C(=O)O)cn1c23 [Levofloxacin] | – | Resistance pattern (E. faecium BAA-2319): R
18 | C[C@@H](O)[C@H]1C(=O)N2C(C(=O)O)=C(S[C@@H]3CN[C@H](C(=O)N(C)C)C3)[C@H](C)[C@H]12 [Meropenem] | R | –
19 | COc1c(N2C[C@@H]3CCCN[C@@H]3C2)c(F)cc2c(=O)c(C(=O)O)cn(C3CC3)c12 [Moxifloxacin] | R | –
20 | CCn1cc(C(=O)O)c(=O)c2ccc(C)nc21 [Nalidixic Acid] | R | –
21 | O=C1CN(/N=C/c2ccc([N+](=O)[O-])o2)C(=O)N1 [Nitrofurantoin] | R | Resistance pattern (E. faecium BAA-2319): R
22 | CCn1cc(C(=O)O)c(=O)c2cc(F)c(N3CCNCC3)cc21 [Norfloxacin] | R | –
23 | Cc1onc(-c2ccccc2)c1C(=O)N[C@@H]1C(=O)N2[C@@H]1SC(C)(C)[C@@H]2C(=O)O [OXA, oxacillin] | – | VITEK characterization (resistance range) (Staphylococcus aureus; S. aureus ATCC 29213): S; VITEK characterization (resistance range) (Staphylococcus aureus; S. aureus ATCC 33591): R
24 | CCN1CCN(C(=O)N[C@@H](C(=O)N[C@@H]2C(=O)N3[C@@H]2SC(C)(C)[C@@H]3C(=O)O)c2ccccc2)C(=O)C1=O [Piperacillin] | R | –
25 | CN(C)[C@@H]1C(O)=C(C(N)=O)C(=O)[C@@]2(O)C(O)=C3C(=O)c4c(O)cccc4[C@@](C)(O)[C@H]3C[C@@H]12 [TET, tetracycline] | R | VITEK characterization (resistance range) (Staphylococcus aureus; S. aureus ATCC 29213): S; VITEK characterization (resistance range) (Staphylococcus aureus; S. aureus ATCC 33591): R; Resistance pattern (E. faecium BAA-2319): R
26 | CC1(C)S[C@@H]2[C@H](NC(=O)[C@H](C(=O)O)c3ccsc3)C(=O)N2[C@H]1C(=O)O [Ticarcillin] | R | –
27 | CN(C)c1cc(NC(=O)CNC(C)(C)C)c(O)c2c1C[C@H]1C[C@H]3[C@H](N(C)C)C(O)=C(C(N)=O)C(=O)[C@@]3(O)C(O)=C1C2=O [Tigecycline] | S | Resistance pattern (E. faecium BAA-2319): S
28 | NC[C@H]1O[C@H](O[C@H]2[C@H](O)[C@@H](O[C@H]3O[C@H](CO)[C@@H](O)[C@H](N)[C@H]3O)[C@H](N)C[C@@H]2N)[C@H](N)C[C@@H]1O [Tobramycin] | R | –
29 | CN[C@H](CC(C)C)C(=O)N[C@H]1C(=O)N[C@@H](CC(N)=O)C(=O)N[C@H]2C(=O)N[C@H]3C(=O)N[C@H](C(=O)N[C@H](C(=O)O)c4cc(O)cc(O)c4-c4cc3ccc4O)[C@H](O)c3ccc(c(Cl)c3)Oc3cc2cc(c3O[C@@H]2O[C@H](CO)[C@@H](O)[C@H](O)[C@H]2O[C@H]2C[C@](C)(N)[C@H](O)[C@H](C)O2)Oc2ccc(cc2Cl)[C@H]1O [VAN, vancomycin] | – | VITEK characterization (resistance range) (Staphylococcus aureus; S. aureus ATCC 29213): S; VITEK characterization (resistance range) (Staphylococcus aureus; S. aureus ATCC 33591): S; Resistance pattern (E. faecium BAA-2319): R
30 | colistin | – | Concentrations with bactericidal effect ([1]; colistin-resistant A. baumannii JMI #1001007, bactericidal = ≥ 3 log10 decrease): 16 to 32 µg/mL; Concentrations with bactericidal effect after 2 h of incubation ([1]; colistin-sensitive A. baumannii JMI #1088100, bactericidal = ≥ 3 log10 decrease): > 0.25 µg/mL; Re-growth during the 24 h timeframe ([1]; colistin-sensitive A. baumannii JMI #1088100, sampled 0, 2, 4, 8, 24 h): No re-growth; MIC colistin value (Acinetobacter baumannii; A. baumannii JMI #1001007 colistin-resistant strain): 8 µg/mL; MIC colistin value (Acinetobacter baumannii; A. baumannii JMI #1088100 colistin-sensitive strain): 0.5 µg/mL

Reference: article PMC7988117, “OMN6 a novel bioengineered peptide for the treatment of multidrug resistant Gram negative bacteria” (Scientific Reports, 2021)
